# Experimental data as given in patent US20260035384A1, “COMPOUND CONTAINING CYCLOHEXYL” (CHIA TAI TIANQING PHARMACEUTICAL GROUP CO., LTD., priority 2022, published 2026).
# Residue numbers refer to the chain shown, from its start. Like-named read-outs stand apart in the source and are kept apart here.
# Tests used:
# LNCaP cells = test: Assay on inhibitory activity for LNCaP cell proliferation (CCK-8); format: cell-based; details: 168 h incubation
# Protocol: (§1) LNCaP cells in a good growth state were taken, washed with PBS, digested with pancreatin, and added with 2% CSS—FBS phenol red-free 1640 complete medium to terminate the digestion. The cells were collected by using a centrifuge tube, adjusted to a cell density of 1×10^5 cells/mL, and seeded in a 96-well plate (100 μL/well). Meanwhile, compounds were added using a nanoliter pipettor such that the final concentrations of the compounds were 10000 nM-0.61 nM. Two duplicate wells were set for each concentration, and meanwhile, a control was set. After another 168 h of incubation in the cell incubator, the detection reagent CCK-8 (manufacturer: Dojindo, 10 μL/well) was added.
# Mouse pharmacokinetics = format: in vivo, ICR mice; details: ICR, mouse, plasma; for AUC: read-out: AUC
# Protocol: ICR mice weighing 18-22 g were randomized into groups of 9 after 3-5 days of acclimatization, and then intragastrically given the test compound solution at a dose of 10 mg/kg and intravenously injected with the test compound solution at a dose of 1 mg/kg.
# Blood sampling time points for the intragastrical administration group were 15 min, 0.5 h, 1 h, 2 h, 3 h, 4 h, 6 h, 8 h, 10 h, and 24 h, and blood sampling time points for the intravenous injection administration group were […], 15 min, 0.5 h, 1 h, 2 h, 4 h, 6 h, 8 h, 10 h, and 24 h; blood was collected from the orbit to prepare plasma samples to be tested. 30 μL of each of the plasma samples to be tested and a standard curve sample were taken, and an acetonitrile solution containing an internal standard was added. Supernatants were obtained by protein precipitation, diluted, and then assayed by LC/MS/MS. Pharmacokinetic parameters were fitted using a non-compartmental model (see Table 6).
# AR in LNCaP cells = biological target: T1, AR in LNCaP cells (Homo sapiens, UniProt P10275, T878A); test: Assay on degradation activity for AR in LNCaP cells (HTRF human androgen receptor detection kit); format: cell-based; details: 24 h incubation
# T1 construct: Assay on Degradation Activity for AR in LNCaP Cells; endogenous in cells; host or cells: LNCaP cells
# T1 sequence (P10275 1-920 T878A): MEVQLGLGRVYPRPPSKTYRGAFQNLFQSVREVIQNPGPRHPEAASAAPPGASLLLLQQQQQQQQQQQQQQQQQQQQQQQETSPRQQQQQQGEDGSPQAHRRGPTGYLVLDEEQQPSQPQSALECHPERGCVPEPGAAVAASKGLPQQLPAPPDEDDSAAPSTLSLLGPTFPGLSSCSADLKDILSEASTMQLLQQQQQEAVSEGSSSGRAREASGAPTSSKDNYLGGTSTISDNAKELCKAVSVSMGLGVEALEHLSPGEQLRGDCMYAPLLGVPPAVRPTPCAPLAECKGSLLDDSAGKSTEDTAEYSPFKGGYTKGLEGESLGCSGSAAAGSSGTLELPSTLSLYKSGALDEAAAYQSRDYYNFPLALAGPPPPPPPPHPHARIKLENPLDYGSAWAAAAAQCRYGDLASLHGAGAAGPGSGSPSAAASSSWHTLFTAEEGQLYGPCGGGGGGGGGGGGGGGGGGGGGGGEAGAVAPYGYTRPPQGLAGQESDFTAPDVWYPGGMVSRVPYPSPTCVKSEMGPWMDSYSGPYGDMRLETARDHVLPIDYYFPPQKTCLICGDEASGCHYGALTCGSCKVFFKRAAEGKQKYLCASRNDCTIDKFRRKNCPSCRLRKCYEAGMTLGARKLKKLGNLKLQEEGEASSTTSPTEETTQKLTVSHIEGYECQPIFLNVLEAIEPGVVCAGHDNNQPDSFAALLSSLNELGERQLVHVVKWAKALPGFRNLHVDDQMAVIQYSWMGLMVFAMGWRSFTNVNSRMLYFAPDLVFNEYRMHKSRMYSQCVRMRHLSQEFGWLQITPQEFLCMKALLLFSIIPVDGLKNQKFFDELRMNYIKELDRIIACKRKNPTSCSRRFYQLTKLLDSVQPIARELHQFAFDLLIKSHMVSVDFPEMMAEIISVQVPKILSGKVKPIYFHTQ
# Protocol: (§2) The detection was carried out using the HTRF HUMAN ANDROGEN RECEPTOR DETECTION KIT (cisbio, 64ANDRPEG), 4× Supplemented Lysis buffer was prepared using the Blocking reagent stock solution (100×) and Lysis buffer stock solution (4×), and 1× Supplemented Lysis buffer was prepared using the 4× Supplemented Lysis buffer and ddH2O. Premixed antibody solutions were prepared using Detection buffer, Androgen Receptor Eu Cryptate antibody, and Androgen Receptor d2 antibody.
# (§3) LNCaP cells in a good growth state were taken, washed with PBS, digested with pancreatin, and added with 2% CSS—FBS phenol red-free 1640 complete medium to terminate the digestion. The cells were collected by using a centrifuge tube, adjusted to a cell density of 1×10^6 cells/mL, and seeded in a 96-well plate (100 μL/well). The cells were incubated overnight in a cell incubator. Compounds were added using a nanoliter pipettor such that the final concentrations of the compounds were 500 nM-0.488 nM. Two duplicate wells were set for each concentration, and meanwhile, a control was set. After another 24 h of incubation in the cell incubator, the medium was pipetted out, the 1× Supplemented Lysis buffer was added at 40 μL/well to lyse the cells. After the cells were oscillated for 40 min at room temperature, 16 μL of the cell lysate was added to a 384-well plate, the Premixed antibody solutions were added at 4 μL/well, and the mixture was left to stand at 25° C. for 2 h. Fluorescence values were detected at 665 nm/620 nm using an Envision microplate reader, the four-parameter analysis was performed, the dose-response curves were fit, and DC50 (the concentration of the drug when the degradation rate reaches 50%) and Dmax (the maximum degradation rate) were calculated.
# VCaP cells = test: Assay on inhibitory activity for VCaP cell proliferation (CCK-8); format: cell-based; details: 168 h incubation
# Protocol: as §1, with “2.1 Assay on inhibitory activity for VCaP cell proliferation VCaP” for “LNCaP”, “5%” for “2%”, “DMEM” for “1640”
# AR in VCaP cells = biological target: T2, AR in VCaP cells (Homo sapiens, UniProt P10275); test: Assay on degradation activity for AR in VCaP cells (HTRF human androgen receptor detection kit); format: cell-based; details: 24 h incubation
# T2 construct: Assay on Degradation Activity for AR in VCaP Cells; endogenous in cells; host or cells: VCaP cells
# T2 sequence (P10275 1-920): T1 sequence (P10275 1-920 T878A) with A878T
# Protocol: as §2
# as §3, with “VCaP” for “LNCaP”, “DMEM” for “1640”, “µL/well).” for “μL/well).”, “1000 nM-0.977” for “500 nM-0.488”
# [1] = po, 10 mg/kg, Mouse i.g. 10 mpk
Structure (SMILES),IC50 (LNCaP cells; Homo sapiens) [nM],DC50 (AR in VCaP cells) [nM],other results
N#Cc1ccc(O[C@H]2CC[C@H](NC(=O)c3ccc(N4CCC(CN5CCc6c(ccc7c(C8CCC(=O)NC8=O)noc67)C5)CC4)nn3)CC2)cc1Cl (stereo partly shown) [Compound 19],< 1000,–,"clearance (Mouse pharmacokinetics; iv, 1 mg/kg, Mouse i.v. 1 mpk): 5.7 mL/min/kg; half-life (Mouse pharmacokinetics; iv, 1 mg/kg, Mouse i.v. 1 mpk): 7.4 h; AUC (Mouse pharmacokinetics; iv, 1 mg/kg, Mouse i.v. 1 mpk): 2600 ng·h/mL; half-life (Mouse pharmacokinetics; [1]): 49.9 h; bioavailability (Mouse pharmacokinetics; po, 10 mg/kg, Mouse i.g. 10 mpk vs i.v. 1 mpk): 41.6%; AUC (Mouse pharmacokinetics; [1]): 10800 ng·h/mL; Cmax (Mouse pharmacokinetics; po, 10 mg/kg, Mouse i.g. 10 mpk, read-out: Cmax): 562 ng/mL; DC50 (AR in LNCaP cells; HTRF): ≤ 20 nM; Dmax (AR in LNCaP cells; maximum degradation rate): > 80%"
CN(c1ccc(C#N)c(Cl)c1)[C@H]1CC[C@H](NC(=O)c2ccc(N3CCC(CN4CCc5c(ccc6c(C7CCC(=O)NC7=O)noc56)C4)CC3)cc2)CC1 (stereo partly shown) [Compound 58],< 1000,≤ 1,IC50 (VCaP cells; Homo sapiens): < 10 nM
CN(c1ccc(C#N)c(Cl)c1)[C@H]1CC[C@H](NC(=O)c2ccc(N3CCN(CC4Cc5ccc6c(C7CCC(=O)NC7=O)noc6c5C4)CC3)cc2)CC1 (stereo partly shown) [Compound 71],–,≤ 1,–
N#Cc1ccc(O[C@H]2CC[C@H](NC(=O)c3ccc(N4CCC(N5CC(CN6Cc7ccc8c(C9CCC(=O)NC9=O)noc8c7C6)C5)CC4)cc3)CC2)cc1Cl (stereo partly shown) [Compound 80],–,≤ 1,–
N#Cc1ccc(O[C@H]2CC[C@H](NC(=O)c3ccc(N4CCC(N5CC(CN6CCc7ccc8c(C9CCC(=O)NC9=O)noc8c7C6)C5)CC4)cc3)CC2)cc1Cl (stereo partly shown) [Compound 81],–,≤ 1,–
N#Cc1ccc(O[C@H]2CC[C@H](NC(=O)c3ccc(N4CCC(N5CC(CN6CCc7c(ccc8c(C9CCC(=O)NC9=O)noc78)C6)C5)CC4)cc3)CC2)cc1Cl (stereo partly shown) [Compound 82],< 1000,≤ 1,–
N#Cc1ccc(O[C@H]2CC[C@H](NC(=O)c3ccc(N4CCC(N5CCC(CN6Cc7ccc8c(C9CCC(=O)NC9=O)noc8c7C6)CC5)CC4)nn3)CC2)cc1Cl (stereo partly shown) [Compound 86],–,≤ 1,–
N#Cc1ccc(O[C@H]2CC[C@H](NC(=O)c3ccc(N4CCC(N5CCC(CN6CCc7ccc8c(C9CCC(=O)NC9=O)noc8c7C6)CC5)CC4)nn3)CC2)cc1Cl (stereo partly shown) [Compound 87],–,≤ 1,–
N#Cc1ccc(O[C@H]2CC[C@H](NC(=O)c3ccc(N4CCC(N5CCC(CN6CCc7c(ccc8c(C9CCC(=O)NC9=O)noc78)C6)CC5)CC4)nn3)CC2)cc1Cl (stereo partly shown) [Compound 88],< 1000,≤ 1,–
N#Cc1ccc(O[C@H]2CC[C@H](NC(=O)c3ccc(N4CCC(N5CC(CN6CCc7c(ccc8c(C9CCC(=O)NC9=O)noc78)C6)C5)CC4)nn3)CC2)cc1Cl (stereo partly shown) [Compound 92],< 1000,≤ 1,"IC50 (VCaP cells; Homo sapiens, VCaP, 168 h): < 10 nM"
N#Cc1ccc(O[C@H]2CC[C@H](NC(=O)c3ccc(N4CCC(N5CC(N6CCc7ccc8c(C9CCC(=O)NC9=O)noc8c7CC6)C5)CC4)nn3)CC2)cc1Cl (stereo partly shown) [Compound 95],< 1000,≤ 1,IC50 (VCaP cells; Homo sapiens): < 100 nM
N#Cc1ccc(O[C@H]2CC[C@H](NC(=O)c3ccc(N4CCC(N5CC(N6Cc7ccc8c(C9CCC(=O)NC9=O)coc8c7C6)C5)CC4)nn3)CC2)cc1Cl (stereo partly shown) [Compound 96],< 1000,≤ 1,"IC50 (VCaP cells; Homo sapiens, VCaP, 168 h): < 10 nM"
N#Cc1ccc(O[C@H]2CC[C@H](NC(=O)c3ccc(N4CCN(C5CN(CC6Cc7ccc8c(C9CCC(=O)NC9=O)coc8c7C6)C5)CC4)nn3)CC2)cc1Cl (stereo partly shown) [Compound 108],–,≤ 1,IC50 (LNCaP cells): < 1000 nM; IC50 (VCaP cells): < 10 nM
